In ChEMBL document CHEMBL1135635, “Kappa-opioid receptor model in a phospholipid bilayer: molecular dynamics simulation” (J Med Chem, 2002):

Target: Kappa-type opioid receptor (Cavia porcellus, UniProt P41144)
Test: Inhibition of [3H]U-69593 binding towards Opioid receptor kappa 1 in guinea pig brain homogenates.
Assay type: tissue-based

Kappa-type opioid receptor, sequence (P41144 whole entry): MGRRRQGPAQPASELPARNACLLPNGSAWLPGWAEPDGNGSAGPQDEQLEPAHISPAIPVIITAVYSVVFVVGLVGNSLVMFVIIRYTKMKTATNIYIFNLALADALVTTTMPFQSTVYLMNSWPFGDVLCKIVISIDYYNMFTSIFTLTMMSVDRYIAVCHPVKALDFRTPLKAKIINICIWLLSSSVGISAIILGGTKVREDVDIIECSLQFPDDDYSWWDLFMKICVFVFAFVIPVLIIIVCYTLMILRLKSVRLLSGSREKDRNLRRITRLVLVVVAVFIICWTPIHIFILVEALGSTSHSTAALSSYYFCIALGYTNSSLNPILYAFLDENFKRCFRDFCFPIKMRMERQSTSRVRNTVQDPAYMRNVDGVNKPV

SMILES | Ki
C[C@H]1C2Cc3ccc(O)cc3[C@@]1(C)CCN2CC1C[C@@]1(C(=O)Nc1ccccc1)c1ccccc1 (some centres not stated) | 2.35 µM
CC(=O)OC[C@@]1(c2ccccc2)CC1CN1CC[C@]2(C)c3cc(O)ccc3CC1[C@@H]2C (some centres not stated) | 0.228 µM
